Reference: patent publication US11053204B2, “Pyrimidinyloxy benzene derivatives as herbicides” (FMC Corporation, priority 2015, dated 2021)

Tests used:
Type in all cases: in vivo
[1] = system: ducksalad (Heteranthera limosa); assay: Test B flooded paddy test, plant response rating; conditions: 250 g ai/ha; Flood; scale of 0 to 100 where 0 is no effect and 100 is complete control; 13 to 15 days
Procedure, shortened: (§1)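 Test compounds are applied straight into paddy water held 3 cm above the soil surface, with that flood maintained for the whole test. After 13 to 15 days in the greenhouse, each species is scored visually relative to controls.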

rice (Oryza sativa) = assay: Test B flooded paddy test, plant response rating; conditions: 250 g ai/ha; Flood; scale of 0 to 100 where 0 is no effect and 100 is complete control; 13 to 15 days
Procedure, shortened: as §1

[2] = system: sedge, umbrella (small-flower umbrella sedge, Cyperus difformis); assay: Test B flooded paddy test, plant response rating; conditions: 250 g ai/ha; Flood; scale of 0 to 100 where 0 is no effect and 100 is complete control; 13 to 15 days
Procedure, shortened: as §1

[3] = system: blackgrass (Alopecurus myosuroides); assay: Test C preemergence, plant response rating; conditions: Preemergence
Procedure, shortened: (§2)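 Visual injury score, 0 = no effect, 100 = complete control, assigned against untreated controls after 13 to 15 d in the greenhouse. Compounds were applied in a surfactant-containing non-phytotoxic solvent mix, preemergence to seeded loam/sand or silt loam soil, or postemergence to 1- to 4-leaf plants (2 to 18 cm).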

corn (Zea mays) = assay: Test C preemergence, plant response rating; conditions: Preemergence
Procedure, shortened: as §2

[4] = system: crabgrass, large (large crabgrass, Digitaria sanguinalis); assay: Test C preemergence, plant response rating; conditions: Preemergence
Procedure, shortened: as §2

[5] = system: foxtail, giant (giant foxtail, Setaria faberii); assay: Test C preemergence, plant response rating; conditions: Preemergence
Procedure, shortened: as §2

[6] = system: lambsquarters (Chenopodium album); assay: Test C preemergence, plant response rating; conditions: Preemergence
Procedure, shortened: as §2

[7] = system: morningglory (Ipomoea coccinea); assay: Test C preemergence, plant response rating; conditions: Preemergence
Procedure, shortened: as §2

[8] = system: nutsedge, yellow (yellow nutsedge, Cyperus esculentus); assay: Test C preemergence, plant response rating; conditions: Preemergence
Procedure, shortened: as §2

[9] = system: oilseed rape (Brassica napus); assay: Test C preemergence, plant response rating; conditions: Preemergence
Procedure, shortened: as §2

[10] = system: ragweed (common ragweed, Ambrosia elatior); assay: Test C preemergence, plant response rating; conditions: Preemergence
Procedure, shortened: as §2

[11] = system: ryegrass, Italian (Italian ryegrass, Lolium multiflorum); assay: Test C preemergence, plant response rating; conditions: Preemergence
Procedure, shortened: as §2

soybean (Glycine max) = assay: Test C preemergence, plant response rating; conditions: Preemergence
Procedure, shortened: as §2

[12] = system: velvetleaf (Abutilon theophrasti); assay: Test C preemergence, plant response rating; conditions: Preemergence
Procedure, shortened: as §2

[13] = system: waterhemp (common waterhemp, Amaranthus rudis); assay: Test C preemergence, plant response rating; conditions: Preemergence
Procedure, shortened: as §2

[14] = system: wheat (winter wheat, Triticum aestivum); assay: Test C preemergence, plant response rating; conditions: Preemergence
Procedure, shortened: as §2

[15] = system: pigweed (Amaranthus retroflexus); assay: Test C preemergence, plant response rating; conditions: Preemergence

N#Cc1cccc(Oc2ncc(Cl)cn2)c1C(=O)OCCC(F)(F)F [Compound 30]
Plant response rating, Ducksalad [1]: 40 | Plant response rating, Rice (rice (Oryza sativa)): 0 | Plant response rating, Sedge, Umbrella [2]: 0 | Plant response rating, Blackgrass ([3]; 62 g ai/ha, scale of 0 to 100): 0 | Plant response rating, Blackgrass ([3]; 125 g ai/ha, scale of 0 to 100): 0 | Plant response rating, Blackgrass ([3]; 16 g ai/ha, scale 0 to 100): 0 | Plant response rating, Blackgrass ([3]; 31 g ai/ha, scale 0 to 100): 0 | Plant response rating, Corn (corn (Zea mays); 62 g ai/ha, scale of 0 to 100): 0 | Plant response rating, Corn (corn (Zea mays); 125 g ai/ha, scale of 0 to 100): 5 | Plant response rating, Corn (corn (Zea mays); 16 g ai/ha, scale 0 to 100): 0 | Plant response rating, Corn (corn (Zea mays); 31 g ai/ha, scale 0 to 100): 0 | Plant response rating, Crabgrass, Large ([4]; 62 g ai/ha, scale of 0 to 100): 80 | Plant response rating, Crabgrass, Large ([4]; 125 g ai/ha, scale of 0 to 100): 98 | Plant response rating, Crabgrass, Large ([4]; 16 g ai/ha, scale 0 to 100): 0 | Plant response rating, Crabgrass, Large ([4]; 31 g ai/ha, scale 0 to 100): 35 | Plant response rating, Foxtail, Giant ([5]; 62 g ai/ha, scale of 0 to 100): 65 | Plant response rating, Foxtail, Giant ([5]; 125 g ai/ha, scale of 0 to 100): 75 | Plant response rating, Foxtail, Giant ([5]; 16 g ai/ha, scale 0 to 100): 5 | Plant response rating, Foxtail, Giant ([5]; 31 g ai/ha, scale 0 to 100): 30 | Plant response rating, Lambsquarters ([6]; 125 g ai/ha, scale of 0 to 100): 55 | Plant response rating, Lambsquarters ([6]; 16 g ai/ha, scale 0 to 100): 10 | Plant response rating, Lambsquarters ([6]; 31 g ai/ha, scale 0 to 100): 25 | Plant response rating, Lambsquarters ([6]; 62 g ai/ha, scale 0 to 100): 30 | Plant response rating, Morningglory ([7]; 125 g ai/ha, scale of 0 to 100): 35 | Plant response rating, Morningglory ([7]; 16 g ai/ha, scale 0 to 100): 0 | Plant response rating, Morningglory ([7]; 31 g ai/ha, scale 0 to 100): 10 | Plant response rating, Morningglory ([7]; 62 g ai/ha, scale 0 to 100): 10 | Plant response rating, Nutsedge, Yellow ([8]; 125 g ai/ha, scale of 0 to 100): 5 | Plant response rating, Nutsedge, Yellow ([8]; 16 g ai/ha, scale 0 to 100): 0 | Plant response rating, Nutsedge, Yellow ([8]; 31 g ai/ha, scale 0 to 100): 0 | Plant response rating, Nutsedge, Yellow ([8]; 62 g ai/ha, scale 0 to 100): 0 | Plant response rating, Oilseed Rape ([9]; 125 g ai/ha, scale of 0 to 100): 100 | Plant response rating, Oilseed Rape ([9]; 16 g ai/ha, scale 0 to 100): 10 | Plant response rating, Oilseed Rape ([9]; 31 g ai/ha, scale 0 to 100): 55 | Plant response rating, Oilseed Rape ([9]; 62 g ai/ha, scale 0 to 100): 100 | Plant response rating, Ragweed ([10]; 125 g ai/ha, scale of 0 to 100): 0 | Plant response rating, Ragweed ([10]; 16 g ai/ha, scale 0 to 100): 0 | Plant response rating, Ragweed ([10]; 31 g ai/ha, scale 0 to 100): 0 | Plant response rating, Ragweed ([10]; 62 g ai/ha, scale 0 to 100): 0 | Plant response rating, Ryegrass, Italian ([11]; 125 g ai/ha, scale of 0 to 100): 5 | Plant response rating, Ryegrass, Italian ([11]; 16 g ai/ha, scale 0 to 100): 0 | Plant response rating, Ryegrass, Italian ([11]; 31 g ai/ha, scale 0 to 100): 0 | Plant response rating, Ryegrass, Italian ([11]; 62 g ai/ha, scale 0 to 100): 0 | Plant response rating, Soybean (soybean (Glycine max); 125 g ai/ha, scale of 0 to 100): 60 | Plant response rating, Soybean (soybean (Glycine max); 16 g ai/ha, scale 0 to 100): 0 | Plant response rating, Soybean (soybean (Glycine max); 62 g ai/ha, scale 0 to 100): 10 | Plant response rating, Velvetleaf ([12]; 125 g ai/ha, scale of 0 to 100): 40 | Plant response rating, Velvetleaf ([12]; 16 g ai/ha, scale 0 to 100): 0 | Plant response rating, Velvetleaf ([12]; 31 g ai/ha, scale 0 to 100): 0 | Plant response rating, Velvetleaf ([12]; 62 g ai/ha, scale 0 to 100): 10 | Plant response rating, Waterhemp ([13]; 125 g ai/ha, scale of 0 to 100): 100 | Plant response rating, Waterhemp ([13]; 16 g ai/ha, scale 0 to 100): 85 | Plant response rating, Waterhemp ([13]; 31 g ai/ha, scale 0 to 100): 100 | Plant response rating, Waterhemp ([13]; 62 g ai/ha, scale 0 to 100): 100 | Plant response rating, Wheat ([14]; 125 g ai/ha, scale of 0 to 100): 10 | Plant response rating, Wheat ([14]; 16 g ai/ha, scale 0 to 100): 0 | Plant response rating, Wheat ([14]; 31 g ai/ha, scale 0 to 100): 0 | Plant response rating, Wheat ([14]; 62 g ai/ha, scale 0 to 100): 0 | Plant response rating, Pigweed ([15]; 125 g ai/ha, scale of 0 to 100): 100 | Plant response rating, Pigweed ([15]; 16 g ai/ha, scale 0 to 100): 90 | Plant response rating, Pigweed ([15]; 31 g ai/ha, scale 0 to 100): 95 | Plant response rating, Pigweed ([15]; 62 g ai/ha, scale 0 to 100): 100
